From patent publication US9046767B2, “Photoacid generator, photoresist, coated substrate, and method of forming an electronic device” (ROHM AND HAAS ELECTRONIC MATERIALS LLC, priority 2013, dated 2015) come the findings set out here.

This data set is described as follows: Solubility evaluation of photoacid generators in organic solvents. The format is physicochemical. Conditions: 2 weight percent, room temperature; for Solubility in 2-Heptanone: solvent 2-Heptanone; for Solubility in PGMEA: solvent PGMEA; for Solubility in 2-Hepanone/n-Butyl Propionate (1:1 w/w): solvent blend 1:1 w/w; for Solubility in n-Butyl Acetate: solvent n-Butyl Acetate. On the procedure:
The photoacid generators were evaluated for solubility in a selection of organic solvents. Solubility of each of the compounds PAG-2, PAG-A1, PAG-A2 were obtained for attempts to completely dissolve the PAG at 2 weight percent at room temperature in different organic solvents and solvent blends. The results for the solubility tests (i.e., where the PAG is observed to be completely soluble in the solvent, or is only partially soluble or insoluble based on the presence of insoluble material) are shown in Table 1, where “O” indicates solubility at 2 weight percent, and “X” indicates partial solubility or insolubility at 2 weight percent.

For the molecule `CC1(C)OCC(C2OC(C)(C)OC2COC(=O)COc2ccc([S+](c3ccccc3)c3ccccc3)cc2)O1.O=C(OCC12CC3CC(CC(O)(C3)C1)C2)C(F)(F)S(=O)(=O)[O-]` (stereo not drawn) [PAG-A2, 4-(2-oxo-2-(2,2,2′,2′-tetramethyl-4,4′-bis(1,3-dioxolan)-5-yl-methoxyethoxy)phenyl)diphenylsulfonium 1,1-difluoro-2-(3-hydroxyadamantan-1-yl-methoxy)-2-oxoethanesulfonate], the “Solubility in 2-Heptanone” value is “◯”, the “Solubility in PGMEA” value was “◯”, the “Solubility in 2-Hepanone/n-Butyl Propionate (1:1 w/w)” value (“Solubility … (1:1 w/w)” below) is listed as “◯” and the “Solubility in n-Butyl Acetate” value is given as “◯”.
Consider “Triphenylsulfonium 1,1-difluoro-2-((-3-hydroxyadamantan-1-yl)methoxy)-2-oxoethanesulfonate [C. PAG 2, reference compound]”, for which the “Solubility in 2-Heptanone” value is listed as “X (“X” indicates partial solubility or insolubility at 2 weight percent)”, the “Solubility in PGMEA” value is listed as “X (“X” indicates partial solubility or insolubility at 2 weight percent)”, the “Solubility … (1:1 w/w)” value was “X (“X” indicates partial solubility or insolubility at 2 weight percent)” and the “Solubility in n-Butyl Acetate” value is recorded as “X (“X” indicates partial solubility or insolubility at 2 weight percent)”.
For the molecule “4-(2-oxo-2-(2,2,2′,2′-tetramethyl-4,4′-bis(1,3-dioxolan)-5-yl-methoxyethoxy)phenyl)diphenylsulfonium 1-adamantyl-3,3,4,4-tetrafluorobutane sulfonate [PAG-A1]”, the “Solubility in 2-Heptanone” value is reported as “◯”, the “Solubility in PGMEA” value was “◯”, the “Solubility … (1:1 w/w)” value was “◯” and the “Solubility in n-Butyl Acetate” value is on record as “◯”.
